Test results taken from ChEMBL document CHEMBL1201861, “Genomics of Drug Sensitity in Cancer screening data, Wellcome Trust Sanger Institute”.

What was measured:
Experiment in all cases: cells
[1] = tested on: COLO-829; format: functional, cell-based, Homo sapiens; conditions: Homo sapiens, COLO-829
Description: SANGER: Inhibition of human COLO-829 cell growth in a cell viability assay.

[2] = tested on: CaR-1; format: functional, cell-based, Homo sapiens; conditions: Homo sapiens, CaR-1;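 further: growth inhibition of human CaR-1 cancer cells, read out with a cell viability assay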
Description: SANGER: Inhibition of human CaR-1 cell growth in a cell viability assay.

[3] = tested on: Calu-3; format: functional, cell-based, Homo sapiens; conditions: Homo sapiens, Calu-3;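 further: growth inhibition of human Calu-3 cells, determined with a cell viability assay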
Description: SANGER: Inhibition of human Calu-3 cell growth in a cell viability assay.

[4] = tested on: ChaGo-K-1; format: functional, cell-based; conditions: Homo sapiens;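 further: growth inhibition of ChaGo-K-1 cells, read out with a cell viability assay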
Description: SANGER: Inhibition of human ChaGo-K-1 cell growth in a cell viability assay.

[5] = tested on: D-542MG; format: functional, cell-based, Homo sapiens; conditions: Homo sapiens, D-542MG
Description: SANGER: Inhibition of human D-542MG cell growth in a cell viability assay.

[6] = tested on: DEL; format: functional, cell-based; conditions: Homo sapiens;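 further: growth inhibition of the human DEL cell line, read out with a cell viability assay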
Description: SANGER: Inhibition of human DEL cell growth in a cell viability assay.

[7] = tested on: DU-4475; format: functional, cell-based; conditions: Homo sapiens
Description: SANGER: Inhibition of human DU-4475 cell growth in a cell viability assay.

[8] = tested on: HCT-116; format: functional, cell-based, Homo sapiens; conditions: Homo sapiens, HCT-116
Description: SANGER: Inhibition of human HCT-116 cell growth in a cell viability assay.

[9] = tested on: HEC-1; format: functional, cell-based, Homo sapiens; conditions: Homo sapiens, HEC-1;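 further: growth inhibition of the cell line, read out with a cell viability assay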
Description: SANGER: Inhibition of human HEC-1 cell growth in a cell viability assay.

[10] = tested on: HL-60; format: functional, cell-based; conditions: Homo sapiens;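 further: growth inhibition of human HL-60 cells, read out with a cell viability assay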
Description: SANGER: Inhibition of human HL-60 cell growth in a cell viability assay.

[11] = tested on: HPAF-II; format: functional, cell-based, Homo sapiens; conditions: Homo sapiens, HPAF-II;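 further: growth inhibition of HPAF-II cells, read out with a cell viability assay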
Description: SANGER: Inhibition of human HPAF-II cell growth in a cell viability assay.

[12] = tested on: HT1197; format: functional, cell-based, Homo sapiens, HT-1197; conditions: Homo sapiens, HT1197
Description: SANGER: Inhibition of human HT-1197 cell growth in a cell viability assay.

[13] = tested on: HT-144; format: functional, cell-based, Homo sapiens; conditions: Homo sapiens, HT-144
Description: SANGER: Inhibition of human HT-144 cell growth in a cell viability assay.

[14] = tested on: JAR; format: functional, cell-based, Homo sapiens; conditions: Homo sapiens, JAR;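 further: growth inhibition of human JAR cells determined with a cell viability assay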
Description: SANGER: Inhibition of human JAR cell growth in a cell viability assay.

[15] = tested on: KARPAS-299; format: functional, cell-based; conditions: Homo sapiens
Description: SANGER: Inhibition of human KARPAS-299 cell growth in a cell viability assay.

[16] = tested on: LNCaP-Clone-FGC; format: functional, cell-based, Homo sapiens; conditions: Homo sapiens, LNCaP-Clone-FGC
Description: SANGER: Inhibition of human LNCaP-Clone-FGC cell growth in a cell viability assay.

[17] = tested on: MZ2-MEL; format: functional, cell-based, Homo sapiens; conditions: Homo sapiens, MZ2-MEL;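 further: growth inhibition of MZ2-MEL cells read out with a cell viability assay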
Description: SANGER: Inhibition of human MZ2-MEL cell growth in a cell viability assay.

[18] = tested on: NCI-H1563; format: functional, cell-based, Homo sapiens; conditions: Homo sapiens, NCI-H1563;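 further: growth inhibition of human NCI-H1563 cells, read out with a cell viability assay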
Description: SANGER: Inhibition of human NCI-H1563 cell growth in a cell viability assay.

[19] = tested on: NCI-H1693; format: functional, cell-based, Homo sapiens; conditions: Homo sapiens, NCI-H1693;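 further: growth inhibition of the human cell line, read out with a cell viability assay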
Description: SANGER: Inhibition of human NCI-H1693 cell growth in a cell viability assay.

[20] = tested on: NCI-H1770; format: functional, cell-based; conditions: Homo sapiens;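 further: growth inhibition of NCI-H1770 cells determined with a viability readout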
Description: SANGER: Inhibition of human NCI-H1770 cell growth in a cell viability assay.

[21] = tested on: NCI-H209; format: functional, cell-based; conditions: Homo sapiens;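 further: growth inhibition of human NCI-H209 cells, measured by a cell viability assay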
Description: SANGER: Inhibition of human NCI-H209 cell growth in a cell viability assay.

[22] = tested on: NCI-H2228; format: functional, cell-based, Homo sapiens; conditions: Homo sapiens, NCI-H2228;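 further: growth inhibition of human NCI-H2228 cells, read out by a cell viability assay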
Description: SANGER: Inhibition of human NCI-H2228 cell growth in a cell viability assay.

[23] = tested on: NCI-H23; format: functional, cell-based, Homo sapiens; conditions: Homo sapiens, NCI-H23;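 further: cell viability assay measuring growth inhibition of NCI-H23 cells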
Description: SANGER: Inhibition of human NCI-H23 cell growth in a cell viability assay.

[24] = tested on: NCI-H358; format: functional, cell-based, Homo sapiens; conditions: Homo sapiens, NCI-H358;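 further: growth inhibition of NCI-H358 human cells, read out with a cell viability assay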
Description: SANGER: Inhibition of human NCI-H358 cell growth in a cell viability assay.

[25] = tested on: NCI-H526; format: functional, cell-based; conditions: Homo sapiens;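 further: growth inhibition of the human NCI-H526 cell line, measured by a cell viability assay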
Description: SANGER: Inhibition of human NCI-H526 cell growth in a cell viability assay.

[26] = tested on: NCI-H650; format: functional, cell-based, Homo sapiens; conditions: Homo sapiens, NCI-H650;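 further: growth inhibition of NCI-H650 cells, read out by a viability assay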
Description: SANGER: Inhibition of human NCI-H650 cell growth in a cell viability assay.

[27] = tested on: NCI-H661; format: functional, cell-based, Homo sapiens; conditions: Homo sapiens, NCI-H661;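 further: cell viability assay read-out, IC50 being the concentration that inhibits growth of the cells by half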
Description: SANGER: Inhibition of human NCI-H661 cell growth in a cell viability assay.

[28] = tested on: SNU1; format: functional, cell-based; conditions: Homo sapiens;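 further: growth inhibition of human NCI-SNU-1 cells, measured with a cell viability assay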
Description: SANGER: Inhibition of human NCI-SNU-1 cell growth in a cell viability assay.

[29] = tested on: OVCAR-8; format: functional, cell-based, Homo sapiens; conditions: Homo sapiens, OVCAR-8;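 further: growth inhibition of human OVCAR-8 cells, read out by a cell viability assay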
Description: SANGER: Inhibition of human OVCAR-8 cell growth in a cell viability assay.

[30] = tested on: PFSK-1; format: functional, cell-based, Homo sapiens; conditions: Homo sapiens, PFSK-1;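 further: cell viability assay measuring how strongly compounds suppress growth of human PFSK-1 cells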
Description: SANGER: Inhibition of human PFSK-1 cell growth in a cell viability assay.

[31] = tested on: RMG-I; format: functional, cell-based, Homo sapiens; conditions: Homo sapiens, RMG-I;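 further: growth inhibition of human RMG-I cells, read out with a cell viability assay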
Description: SANGER: Inhibition of human RMG-I cell growth in a cell viability assay.

[32] = tested on: RVH-421; format: functional, cell-based, Homo sapiens; conditions: Homo sapiens, RVH-421
Description: SANGER: Inhibition of human RVH-421 cell growth in a cell viability assay.

[33] = tested on: S-117; format: functional, cell-based, Homo sapiens; conditions: Homo sapiens, S-117
Description: SANGER: Inhibition of human S-117 cell growth in a cell viability assay.

[34] = tested on: SK-HEP1; format: functional, cell-based, Homo sapiens, SK-HEP-1; conditions: Homo sapiens, SK-HEP1;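 further: cell viability readout used to quantify reduction in proliferation of human SK-HEP-1 cells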
Description: SANGER: Inhibition of human SK-HEP-1 cell growth in a cell viability assay.

[35] = tested on: SK-LMS-1; format: functional, cell-based, Homo sapiens; conditions: Homo sapiens, SK-LMS-1;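 further: growth inhibition of human SK-LMS-1 cells, read out with a cell viability assay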
Description: SANGER: Inhibition of human SK-LMS-1 cell growth in a cell viability assay.

[36] = tested on: SK-MEL-1; format: functional, cell-based; conditions: Homo sapiens;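 further: growth inhibition of human SK-MEL-1 cells, read out by a cell viability assay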
Description: SANGER: Inhibition of human SK-MEL-1 cell growth in a cell viability assay.

[37] = tested on: SW872; format: functional, cell-based, Homo sapiens; conditions: Homo sapiens, SW872;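 further: growth inhibition of SW872 cells, read out by a viability assay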
Description: SANGER: Inhibition of human SW872 cell growth in a cell viability assay.

[38] = tested on: T47D; format: functional, cell-based, Homo sapiens; conditions: Homo sapiens, T47D;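 further: growth inhibition of human T47D cells, measured with a cell viability assay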
Description: SANGER: Inhibition of human T47D cell growth in a cell viability assay.

[39] = tested on: A-431; format: functional, cell-based, Homo sapiens; conditions: Homo sapiens, A-431;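 further: growth inhibition of A-431 cells, determined with a cell viability read-out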
Description: SANGER: Inhibition of human A431 cell growth in a cell viability assay.

[40] = tested on: ACHN; format: functional, cell-based, Homo sapiens; conditions: Homo sapiens, ACHN;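 further: cell viability read-out used to gauge how strongly growth of human ACHN cells is suppressed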
Description: SANGER: Inhibition of human ACHN cell growth in a cell viability assay.

[41] = tested on: ACN; format: functional, cell-based, Homo sapiens; conditions: Homo sapiens, ACN;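 further: growth inhibition of the human ACN cell line, read out via cell viability testing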
Description: SANGER: Inhibition of human ACN cell growth in a cell viability assay.

[42] = tested on: BB65-RCC; format: functional, cell-based, Homo sapiens; conditions: Homo sapiens, BB65-RCC;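 further: growth inhibition of the cell line, measured with a cell viability assay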
Description: SANGER: Inhibition of human BB65-RCC cell growth in a cell viability assay.

[43] = tested on: BEN; format: functional, cell-based, Homo sapiens; conditions: Homo sapiens, BEN;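 further: growth inhibition of the BEN cell line, read out with a cell viability assay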
Description: SANGER: Inhibition of human BEN cell growth in a cell viability assay.

[44] = tested on: C3A; format: functional, cell-based, Homo sapiens; conditions: Homo sapiens, C3A;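 further: growth inhibition of C3A human cells, quantified with a cell viability readout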
Description: SANGER: Inhibition of human C3A cell growth in a cell viability assay.

[45] = tested on: CAL-62; format: functional, cell-based, Homo sapiens; conditions: Homo sapiens, CAL-62;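 further: growth inhibition of CAL-62 cells, read out with a cell viability assay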
Description: SANGER: Inhibition of human CAL-62 cell growth in a cell viability assay.

[46] = tested on: TE-5; format: functional, cell-based, Homo sapiens; conditions: Homo sapiens, TE-5;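 further: inhibition of cell growth, read out by a cell viability assay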
Description: SANGER: Inhibition of human TE-5 cell growth in a cell viability assay.

[47] = tested on: TE-8; format: functional, cell-based, Homo sapiens; conditions: Homo sapiens, TE-8;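 further: growth inhibition of TE-8 cells, measured with a cell viability readout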
Description: SANGER: Inhibition of human TE-8 cell growth in a cell viability assay.

[48] = tested on: UACC-257; format: functional, cell-based, Homo sapiens; conditions: Homo sapiens, UACC-257
Description: SANGER: Inhibition of human UACC-257 cell growth in a cell viability assay.

[49] = tested on: UMUC3; format: functional, cell-based, Homo sapiens; conditions: Homo sapiens, UMUC3;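 further: growth inhibition of human UM-UC-3 cells, read out with a cell viability assay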
Description: SANGER: Inhibition of human UM-UC-3 cell growth in a cell viability assay.

[50] = tested on: no-11; format: functional, cell-based, Homo sapiens; conditions: Homo sapiens;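 further: growth inhibition of human NO-11 cells, read out with a cell viability assay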
Description: SANGER: Inhibition of human no-11 cell growth in a cell viability assay.

[51] = tested on: COLO-684; format: functional, cell-based; conditions: Homo sapiens
Description: SANGER: Inhibition of human COLO-684 cell growth in a cell viability assay.

## CCOc1nc(NC(=O)Cc2cc(OC)ccc2OC)cc(N)c1C#N
[1]
  IC50: > 10 µM
[2]
  IC50: > 10 µM
[3]
  IC50: > 10 µM
[4]
  IC50: > 10 µM
[5]
  IC50: > 10 µM
[6]
  IC50: > 10 µM
[7]
  IC50: > 10 µM
[8]
  IC50: > 10 µM
[9]
  IC50: > 10 µM
[10]
  IC50: > 10 µM
[11]
  IC50: > 10 µM
[12]
  IC50: > 10 µM
[13]
  IC50: > 10 µM
[14]
  IC50: > 10 µM
[15]
  IC50: > 10 µM
[16]
  IC50: > 10 µM
[17]
  IC50: > 10 µM
[18]
  IC50: > 10 µM
[19]
  IC50: > 10 µM
[20]
  IC50: > 10 µM
[21]
  IC50: > 10 µM
[22]
  IC50: > 10 µM
[23]
  IC50: > 10 µM
[24]
  IC50: > 10 µM
[25]
  IC50: > 10 µM
[26]
  IC50: > 10 µM
[27]
  IC50: > 10 µM
[28]
  IC50: > 10 µM
[29]
  IC50: > 10 µM
[30]
  IC50: > 10 µM
[31]
  IC50: > 10 µM
[32]
  IC50: > 10 µM
[33]
  IC50: > 10 µM
[34]
  IC50: > 10 µM
[35]
  IC50: > 10 µM
[36]
  IC50: > 10 µM
[37]
  IC50: > 10 µM
[38]
  IC50: > 10 µM
[39]
  IC50: > 10 µM
[40]
  IC50: > 10 µM
[41]
  IC50: > 10 µM
[42]
  IC50: > 10 µM
[43]
  IC50: > 10 µM
[44]
  IC50: > 10 µM
[45]
  IC50: > 10 µM
[46]
  IC50: > 10 µM
[47]
  IC50: > 10 µM
[48]
  IC50: > 10 µM
[49]
  IC50: > 10 µM
[50]
  IC50: > 10 µM
[51]
  IC50: > 10 µM

## CC(=O)O[C@@H]1[C@@H](OC(C)=O)[C@@H](O)[C@H](Oc2c(-c3ccc(O)cc3)oc3cc(O)cc(O)c3c2=O)O[C@H]1C
[1]
  IC50: > 10 µM
[2]
  IC50: > 10 µM
[3]
  IC50: > 10 µM
[4]
  IC50: > 10 µM
[5]
  IC50: > 10 µM
[6]
  IC50: > 10 µM
[7]
  IC50: 7.65 µM
[8]
  IC50: > 10 µM
[9]
  IC50: > 10 µM
[10]
  IC50: > 10 µM
[11]
  IC50: > 10 µM
[12]
  IC50: > 10 µM
[13]
  IC50: > 10 µM
[14]
  IC50: > 10 µM
[15]
  IC50: > 10 µM
[16]
  IC50: > 10 µM
[17]
  IC50: > 10 µM
[18]
  IC50: > 10 µM
[19]
  IC50: > 10 µM
[20]
  IC50: > 10 µM
[21]
  IC50: > 10 µM
[22]
  IC50: > 10 µM
[23]
  IC50: > 10 µM
[24]
  IC50: > 10 µM
[25]
  IC50: > 10 µM
[26]
  IC50: > 10 µM
[27]
  IC50: > 10 µM
[28]
  IC50: > 10 µM
[29]
  IC50: > 10 µM
[30]
  IC50: > 10 µM
[31]
  IC50: > 10 µM
[32]
  IC50: > 10 µM
[33]
  IC50: > 10 µM
[34]
  IC50: > 10 µM
[35]
  IC50: > 10 µM
[36]
  IC50: 9.05 µM
[37]
  IC50: > 10 µM
[38]
  IC50: > 10 µM
[39]
  IC50: > 10 µM
[40]
  IC50: > 10 µM
[41]
  IC50: > 10 µM
[42]
  IC50: > 10 µM
[43]
  IC50: > 10 µM
[44]
  IC50: > 10 µM
[45]
  IC50: > 10 µM
[46]
  IC50: > 10 µM
[47]
  IC50: > 10 µM
[48]
  IC50: > 10 µM
[49]
  IC50: > 10 µM
[50]
  IC50: > 10 µM
[51]
  IC50: > 10 µM
